pIC50: −log10 of the molar value.
What was measured:
[1] = system: breast cancer cell line (MDA-MB-231); experiment: Cancer proliferation inhibitory activity (SRB, GI50), MDA-MB-231; format: cell-based; settings: Homo sapiens, 48 hours
Procedure, shortened: (§1)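 Read-out was OD540 of sulforhodamine B extracted with 10 mM Tris base (pH 10.5) from TCA-fixed cells, from which GI50 was derived. Treatment lasted 48 h at 0.1 μM to 10 μM compound in RPMI 1640 plus 10% FBS.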

[2] = Body weight of mice in prostate cancer xenograft model; format: in vivo; settings: 50 mg/kg (SAHA 100 mg/kg) once a day for 16 days
Description: (§2) When the tumor size reached 40-60 mm^3, the mice were randomly grouped (4 mice per group), which were the non-treated group (10% dimethylacetamide, 10% tween 80 and 80% distilled water), the groups treated with the compounds of comparative examples 1 and 2 (Ajoene, 50 mg/kg), the groups treated with the compounds of examples 18 and 32 (50 mg/kg), and the group treated with the positive control SAHA (Vorinostat, 100 mg/kg). The treatment was performed once a day for 16 days in total. During the treatment, the tumor size was measured with a vernier caliper, followed by evaluation according to the following formula: length (mm)×width (mm)×height (mm)/2. The weights were measured regularly.
(§3) Upon completion of the treatment (16 days later), the mice were sacrificed and the tumor weights were measured. All the experiments were performed according to the experiment protocol approved by Institutional Animal care and Use Committee (IACUC), Korea Research Institute of Bioscience and Biotechnology (KRIBB).

[3] = system: renal cancer cell line (ACHN); experiment: Cancer proliferation inhibitory activity (SRB, GI50), ACHN; format: cell-based; settings: Homo sapiens, 48 hours
Procedure, shortened: as §1

[4] = system: PC-3 cells, human prostate cancer cells; experiment: Anticancer activity in prostate cancer xenograft model; format: in vivo, mice; settings: for tumor size / cancer proliferation (FIGS. 2, 3): 50 mg/kg (SAHA 100 mg/kg) once a day for 16 days, compared with the non-treated group
Description: Particularly, 9×10^6 PC-3 cells, human prostate cancer cells, were inoculated subcutaneously to the right side of female BALB/c nu/nu mice at 5 weeks of age (Nara Biotech, Seoul, Republic of Korea).
as §2, §3

HDAC 1 = HDAC 1 (Homo sapiens, UniProt Q13547); experiment: HDAC enzyme fluorescence assay, HDAC 1; format: biochemical; settings: recombinant HDAC enzyme, Boc-Lys(acetyl)-AMC
Description: Particularly, HDAC enzyme analysis was performed based on a uniform fluorescence emission assay. First, the compounds of examples of the present invention or comparative example 1 were diluted at different concentrations, which were treated to the analysis buffer containing 25 mM HEPES (pH 8.0), 137 mM NaCl, 1 mM MgCl2 and 2.7 mM KCL, followed by culture of the recombinant HDAC enzyme. 10 minutes later, Boc-Lys(acetyl)-AMC, the fluorescence inducing substrate, was added thereto, followed by further culture at 37° C. At this time, the concentration of the fluorescence inducing substrate and the culture time were adjusted according to the isotypes of the HDAC enzyme. The reaction was terminated by treating trypsin at room temperature for 20 minutes. The fluorescence intensity was measured using a fluorescence analyzer at an excitation wavelength of 380 nm and an emission wavelength of 460 nm, respectively. The inhibition rate was calculated from the measured fluorescence intensity of each well with comparing to that of the control well. IC50 of the compound was calculated by analyzing the dose-reaction inhibition curve.

[5] = system: colorectal cancer cell line (HCT-15); experiment: Cancer proliferation inhibitory activity (SRB, GI50), HCT-15; format: cell-based; settings: Homo sapiens, 48 hours
Procedure, shortened: as §1

[6] = system: gastric cancer cell line (NUGC-3); experiment: Cancer proliferation inhibitory activity (SRB, GI50), NUGC-3; format: cell-based; settings: Homo sapiens, 48 hours
Procedure, shortened: as §1

[7] = system: prostate cancer cell line (PC-3); experiment: Cancer proliferation inhibitory activity (SRB, GI50), PC-3; format: cell-based; settings: Homo sapiens, 48 hours
Procedure, shortened: as §1

[8] = system: lung cancer cell line (NCl-H23); experiment: Cancer proliferation inhibitory activity (SRB, GI50), NCI-H23; format: cell-based; settings: Homo sapiens, 48 hours
Procedure, shortened: as §1

Chain of HDAC 1 (Q13547 whole entry, species assumed): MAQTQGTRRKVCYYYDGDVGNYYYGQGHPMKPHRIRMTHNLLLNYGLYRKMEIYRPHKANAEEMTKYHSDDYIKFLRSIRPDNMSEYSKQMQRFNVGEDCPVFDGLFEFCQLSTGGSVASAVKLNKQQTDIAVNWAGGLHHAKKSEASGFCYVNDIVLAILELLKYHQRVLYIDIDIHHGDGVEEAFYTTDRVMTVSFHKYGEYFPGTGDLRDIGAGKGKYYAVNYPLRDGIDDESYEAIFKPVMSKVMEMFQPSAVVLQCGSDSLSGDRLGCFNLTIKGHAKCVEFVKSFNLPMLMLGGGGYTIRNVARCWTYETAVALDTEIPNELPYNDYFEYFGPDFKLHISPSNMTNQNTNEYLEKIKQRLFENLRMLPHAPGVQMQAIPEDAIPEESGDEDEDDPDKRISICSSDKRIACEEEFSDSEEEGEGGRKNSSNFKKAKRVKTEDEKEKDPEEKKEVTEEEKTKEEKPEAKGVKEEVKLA

In the case of `COc1ccc([S+]([O-])C/C=C\SSCc2ccccc2)cc1` (stereo not shown) [Example 32, (Z)-1-benzyl-2-(3-(4-methoxyphenylsulfinyl)prop-1-enyl)disulfane], the GI50 [1] was 5.88 µM, the “changes in weight of mice / visible toxicity (FIG. 1)” value [2] was “only normal weight increases were observed” and the GI50 [3] was 3.12 µM. The “tumor size / cancer proliferation (FIGS. 2, 3)” value [4] was “cancer proliferation was inhibited”, the pIC50 (HDAC 1) was 5.34 and the GI50 [5] was 1.55 µM. The GI50 [6] was 3.82 µM, the GI50 [7] was 3.19 µM and the GI50 [8] was 4.37 µM.
In the case of `CCCSS/C=C\C[S+]([O-])c1cccc(OC)c1` (stereo not shown) [Example 18, (Z)-1-(3-(3-methoxyphenylsulfinyl)prop-1-enyl)-2-propyldisulfane], the GI50 [1] was 2.43 µM, the “changes in weight of mice / visible toxicity (FIG. 1)” value [2] was “only normal weight increases were observed” and the GI50 [3] was 2.06 µM. For the same compound, the “tumor size / cancer proliferation (FIGS. 2, 3)” value [4] was “inhibit cancer proliferation similarly to the positive control SAHA”, the “tumor weight (FIG. 4)” value ([4]; 50 mg/kg once a day, tumor extracted after 16 days) was “lighter than the tumor weight in the non-treated group” and the pIC50 (HDAC 1) was 5.45. The GI50 [5] was 1.34 µM, the GI50 [6] was 1.71 µM and the GI50 [7] was 1.92 µM. For the same compound, the GI50 [8] was 1.59 µM.

— US11230525B2, “Organic sulfur compound, method for preparing same, and pharmaceutical composition for preventing or treating cancer or an inflammatory disease, containing same as active ingredient” (SOOKMYUNG WOMENS UNIVERSITY INDUSTRY-ACADEMIC COOPERATION …, priority 2016, dated 2022)
